# Experimental data: patent US20020127182A1, “Paramagnetic metal ion-based macrocylic magnetization transfer contrast agents and method of use” (Board of Regents, The University of Texas System, priority 2000, published 2002)
# How the values were obtained:
# Type in all cases: physicochemical
# [1] = 1H NMR spectra of Ln(9)^3+ complexes, exchangeable amide protons
# Source text: For certain Ln(9)^3+ complexes, for example, with Ln equal to Yb or Tm, the bound water molecules are ^1H NMR invisible probably due to the fast exchange between the bound water and the bulk water. […] Unfortunately, the NMR signal was invisible, probably due to its fast exchange with the bulk water. However, the eight exchangeable amide protons present as two resonance peaks with equivalent intensity, at −14.5 (Ha) and −17.7 (Hb) ppm, respectively, are visible.
# [2] = pH dependence of amide proton (Ha, Hb) lifetimes τM^298 and Δω•τM of Yb(9)^3+
# Source text: As indicated by their linewidths, illustrated in FIG. 24, the two exchangeable amide sites have different dependences upon pH. As further illustrated in FIG. 25, Hb exchanges about 1.3 times faster than that of Ha. […] Similar to that discussed above for Ln(1)^3+, either too fast or too slow exchange may produce less MT. For the conditions used to obtain the data presented in Table 2, the maximum MT effect appear to be obtained for Ln(9)^3+ complexes when the exchange limiting regime is about 15.
# [3] = Effect of saturation duration on MT with Yb(9)^3+ (bulk water 1H NMR); conditions: 5 mM, pH 7.4, 25° C.; saturating pulse of about 2 s or longer centered between amide proton signals, bandwidth 1500 Hz
# Protocol: An eleventh series of experiments was conducted to examine the effect of saturation duration on the magnitude of MT obtained using the Yb(9)^3+ complex. […] The upper series of spectra (a) were obtained while applying a saturating pulse of different duration and centered between the resonance signals of the exchangeable amide protons, with a saturating bandwidth of 1500 Hz. The saturating bandwidth was produced using conventional water elimination technique (i.e., a wet1d pulse sequence). See Varian User Manual; Varian NMR, Palo Alto, Calif.; User Guide, VNMR Version 6.1 software, 1997), incorporated herein by reference. The pulse sequence to produce saturation was modified to include hard loops to shape the pulse train (90° e-burp1, typically repeated from about 0 to about 500 times) with a bandwidth of 1500 Hz (pwwet=3.0 ms and wetpwr=28 db). The lower series (b) of spectra, shown inverted to facilitate comparison to series (a), were obtained while applying the same saturating pulse, but on the opposite side and equal distance away from the bulk water MR signal. As the illustrated in FIG. 26, for a saturating pulse of about 2 s or longer, about a 38% decrease in the bulk water signal was obtained for series (a).
# [4] = 500 MHz 1H NMR spectrum of Eu(2)^- complex, exchangeable sites; conditions: aqueous, pH 7.4, 25° C.
# Source text: Two sites in the complex (denoted by the symbols *) are chemically exchangeable with bulk water (denoted by the symbol ? ): one is from Eu^3+-bound water at about 57 ppm, and another is from four equivalent amide protons on the pendent arms at about −6 ppm.
# [5] = pH dependence of bound water and amide proton lifetimes τM^298 of Eu(2)^- by variable temperature 1H NMR line width fitting
# Protocol: In a sixth series of experiments, the pH dependence of the bound water (FIG. 14) and the amide (FIG. 15) protons lifetimes, τM^298, were determined by variable temperature ^1H NMR line width fitting. The chemically exchangeable bound water and amide protons have different dependence on pH. For bound water protons, the slowest exchange, i.e., largest τM^298, takes place at pH 7 (FIG. 14). Moreover, the pH dependence may be divided into two linear ranges: an acidic range where τM^298=68.6*pH−172.5; and a basic range where τM^298=−128.2*pH+1212.6, respectively. For the amide protons, the slowest exchange is at pH 5.5 (FIG. 15).
# [6] = MT profiles of Eu(2)^- complex versus pH and saturation power; conditions: saturating bound water at about 57 ppm; 62.5 mM, 2 s, 41 db
# Protocol: In a seventh experiment, MT profiles were obtained for 62.5 mM aqueous solutions of the Eu(2)^− lanthanide-macrocylic complex. A saturating RF pulse of 2 s at the resonance frequency of bound water or amide protons, with a power of 41 db, was applied to a 3.5 cm volume coil. […] The same set of data was plotted versus the bound water lifetime, τM^298, or the exchange limiting regime, Δω•τM, as shown in FIG. 17. The largest MT occurs for a Δω•τM ranging from about 12 to about 17, and optimally about 15.
compound,measurement,setting,value
NC(=O)CN1CCN(CC(N)=O)CCN(CC(N)=O)CCN(CC(N)=O)CC1.[Yb+3] [Yb(9)^3+],"chemical shift of amide protons, first set (Ha)",[1],−14.5 ppm
same,"chemical shift of amide protons, second set (Hb)",[1],−17.7 ppm
same,Hb exchanges faster than Ha,[2],about 1.3 times
same,exchange limiting regimes Δω•τM of both amide protons,"[2]; 7.05 T, broad range of pH values",> 1
same,"τM^298, Ha",[2]; pH 6.46,5.00 ms
same,"τM^298, Hb",[2]; pH 6.46,4.00 ms
same,"Δω•τM^298, Ha","[2]; pH 6.46, 7.05 T",139.3
same,"Δω•τM^298, Hb","[2]; pH 6.46, 7.05 T",133.7
same,"τM^298, Ha",[2]; pH 6.76,2.30 ms
same,"τM^298, Hb",[2]; pH 6.76,1.78 ms
same,"Δω•τM^298, Ha","[2]; pH 6.76, 7.05 T",64.1
same,"Δω•τM^298, Hb","[2]; pH 6.76, 7.05 T",59.5
same,"τM^298, Ha",[2]; pH 7.06,1.21 ms
same,"τM^298, Hb",[2]; pH 7.06,0.82 ms
same,"Δω•τM^298, Ha","[2]; pH 7.06, 7.05 T",33.6
same,"Δω•τM^298, Hb","[2]; pH 7.06, 7.05 T",27.2
same,"τM^298, Ha",[2]; pH 7.21,0.92 ms
same,"τM^298, Hb",[2]; pH 7.21,0.72 ms
same,"Δω•τM^298, Ha","[2]; pH 7.21, 7.05 T",25.5
same,"Δω•τM^298, Hb","[2]; pH 7.21, 7.05 T",24.2
same,"τM^298, Ha",[2]; pH 7.43,0.64 ms
same,"τM^298, Hb",[2]; pH 7.43,0.52 ms
same,"Δω•τM^298, Ha","[2]; pH 7.43, 7.05 T",17.9
same,"Δω•τM^298, Hb","[2]; pH 7.43, 7.05 T",17.4
same,"τM^298, Ha",[2]; pH 7.84,0.57 ms
same,"τM^298, Hb",[2]; pH 7.84,0.44 ms
same,"Δω•τM^298, Ha","[2]; pH 7.84, 7.05 T",15.9
same,"Δω•τM^298, Hb","[2]; pH 7.84, 7.05 T",14.7
same,"decrease in the bulk water signal, series (a)",[3],~38%
"O=C([O-])CNC(=O)CN1CCN(CC(=O)NCC(=O)[O-])CCN(CC(=O)NCC(=O)[O-])CCN(CC(=O)NCC(=O)[O-])CC1.[Eu+3] [Eu(2)^−, LnDOTA-4AmC^−]",chemical shift of Eu^3+-bound water,[4],about 57 ppm
same,chemical shift of four equivalent amide protons on the pendent arms,[4],about −6 ppm
same,"pH of slowest exchange (largest τM^298), bound water protons",[5],7
same,"pH of slowest exchange, amide protons",[5],5.5
same,"exchange limiting regimes (Δω•τM), bound water and amide protons",[5]; magnetic field strength of 4.7,> 1
same,optimal Δω•τM for largest MT,[6],about 15
